Reference: PMC7515484, “Sphingosine kinase 2 inhibitor ABC294640 suppresses neuronal excitability and inhibits multiple endogenously and exogenously expressed voltage-gated ion channels in cultured cells” (Channels, 2020)

How the values were obtained:
KV4.2 = target: T1, KV4.2 (Homo sapiens, UniProt Q9NZV8); assay: whole-cell patch clamp, persistent current, transfected HEK293T cells; format: cell-based
T1 construct: gene KCND2
T1 sequence (Q9NZV8 1-630): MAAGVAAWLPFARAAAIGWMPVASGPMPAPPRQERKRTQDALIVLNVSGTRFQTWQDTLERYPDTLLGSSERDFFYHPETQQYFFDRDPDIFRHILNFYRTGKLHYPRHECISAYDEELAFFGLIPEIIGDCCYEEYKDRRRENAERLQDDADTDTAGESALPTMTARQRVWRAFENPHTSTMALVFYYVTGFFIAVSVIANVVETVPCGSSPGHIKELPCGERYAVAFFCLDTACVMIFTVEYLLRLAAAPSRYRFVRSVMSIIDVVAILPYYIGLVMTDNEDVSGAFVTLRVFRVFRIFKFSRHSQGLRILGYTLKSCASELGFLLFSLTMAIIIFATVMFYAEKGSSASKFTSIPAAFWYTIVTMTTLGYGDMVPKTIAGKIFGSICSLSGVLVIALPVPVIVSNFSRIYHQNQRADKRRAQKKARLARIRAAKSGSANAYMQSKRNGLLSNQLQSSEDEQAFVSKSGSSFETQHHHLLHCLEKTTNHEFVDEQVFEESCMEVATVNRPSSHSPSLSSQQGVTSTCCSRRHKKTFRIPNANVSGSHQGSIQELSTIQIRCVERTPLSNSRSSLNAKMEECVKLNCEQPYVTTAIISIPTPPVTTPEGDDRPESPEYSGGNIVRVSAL

KV1.4 = target: T2, KV1.4 (Homo sapiens, UniProt P22459); assay: as above; format: cell-based
T2 construct: gene KCNA4; human KCNA4 cDNA in pCMV3, expressed in HEK293T cells
T2 sequence (P22459 whole entry): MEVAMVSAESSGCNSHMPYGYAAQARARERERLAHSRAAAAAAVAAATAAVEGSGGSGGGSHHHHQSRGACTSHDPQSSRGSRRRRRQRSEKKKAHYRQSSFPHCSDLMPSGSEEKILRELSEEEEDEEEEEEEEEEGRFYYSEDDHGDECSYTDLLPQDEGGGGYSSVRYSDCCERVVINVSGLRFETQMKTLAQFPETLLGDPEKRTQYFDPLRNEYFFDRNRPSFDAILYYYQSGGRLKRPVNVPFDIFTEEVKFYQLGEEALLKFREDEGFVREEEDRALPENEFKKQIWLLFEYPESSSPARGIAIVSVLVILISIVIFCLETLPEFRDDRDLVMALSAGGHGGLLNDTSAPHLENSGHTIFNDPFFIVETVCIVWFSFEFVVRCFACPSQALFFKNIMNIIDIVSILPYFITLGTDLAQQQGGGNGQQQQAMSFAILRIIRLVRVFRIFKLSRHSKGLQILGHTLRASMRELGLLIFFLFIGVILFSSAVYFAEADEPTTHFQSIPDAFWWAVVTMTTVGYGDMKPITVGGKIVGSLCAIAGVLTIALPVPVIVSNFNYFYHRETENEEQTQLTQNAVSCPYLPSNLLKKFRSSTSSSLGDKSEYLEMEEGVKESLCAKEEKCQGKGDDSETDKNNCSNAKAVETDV

O=C(NCc1ccncc1)C12CC3CC(C1)CC(c1ccc(Cl)cc1)(C3)C2 [ABC294640]
IC50 (KV4.2): 4.77 ± 0.68 µM
IC50 (KV1.4): 2.76 ± 0.28 µM
